Assay results taken from patent publication US4861789A, “Dihydro-indene-amine-dihydrooxazoles” (Beecham Group plc, priority 1986, dated 1989).
Where a name gives a salt, the structure may show the parent alone. Read-outs that look alike come from different tables or passages of the source.

What was measured:
α2-Adrnoceptor = target: T1, α2-Adrnoceptor (Homo sapiens, UniProt P08913); test: α2-Adrenoceptor binding ([3H] Rauwolscine, human platelet membranes)
T1 construct: from tissue; host or cells: human platelet membranes
T1 sequence (P08913 1-465): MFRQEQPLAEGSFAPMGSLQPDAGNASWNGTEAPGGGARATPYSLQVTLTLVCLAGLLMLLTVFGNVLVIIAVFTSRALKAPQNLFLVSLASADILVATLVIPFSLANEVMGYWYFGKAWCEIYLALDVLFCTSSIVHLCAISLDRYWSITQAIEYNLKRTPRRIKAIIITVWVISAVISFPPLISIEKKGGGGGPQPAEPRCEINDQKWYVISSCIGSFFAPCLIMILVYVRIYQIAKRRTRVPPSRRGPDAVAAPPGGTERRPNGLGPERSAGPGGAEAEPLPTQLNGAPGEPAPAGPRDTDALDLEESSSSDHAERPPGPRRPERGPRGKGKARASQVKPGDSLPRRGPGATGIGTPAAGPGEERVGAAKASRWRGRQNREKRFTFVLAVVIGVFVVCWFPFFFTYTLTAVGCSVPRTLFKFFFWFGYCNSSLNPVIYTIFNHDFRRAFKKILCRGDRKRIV
Description: Human platelet membranes were incubated with [^3 H] Rauwolscine (0.5-1.0 nM) for 30 minutes at 30° C. with varying concetrates of the drug (0.1-10,000 nM). The binding assay was stopped by filtering and rinsing on GF B glass fibre filters.
Binding Affinity (Ki) was calculated using the Cheng-Prussoff equation.

[1] = test system: Adrenaline-Exacerbated Glucose Intolerance; test: Reversal of Adrenaline-Exacerbated Glucose Intolerance in Mice; assay type: in vivo, CFLP female mice; conditions: 20 μmol/kg oral gavage, 30 min before glucose (1 g/kg) and adrenaline (300 μg/kg) s.c.; blood samples 0-120 min; versus water dosed control
Description: Reversal of Adrenaline-Exacerbated Glucose Intolerance in Mice CFLP female mice of about 25 g were fasted for 24 hours prior to receiving water (10 ml/kg) or the compound by oral gavage. Thirty minutes later, glucose (1 g/kg) and adrenaline (300 μg/kg) were injected subcutaneously. Blood samples for glucose analysis were taken serially from the tail of each mouse at 0, 30, 60, 90 and 120 minutes after dosing glucose and the results are expressed below as the percentage reduction in the area under the blood glucose curve; the compound treated groups being compared to the water dosed control group. Six mice were used in each treatment group.

`c1ccc2c(c1)CC(NC1=NCCN1)C2` [Example 2, 2-[2-(2,3-Dihydro-1H-indene)amino)4,5-dihydroimidazole hydrochloride hemihydrate] was tested, and the Ki (α2-Adrnoceptor) was 98 nM.

Work on `Cc1ccc2c(c1)CC(NC1=NCCO1)C2` (stereo not shown) [Example 5, 2-[2-(2,3-dihydro-5-methyl-1H-indene)amino]4,5-dihydrooxazole] yielded a Ki (α2-Adrnoceptor) of 25 nM.

For `c1ccc2c(c1)CCC(NC1=NCCO1)C2` (stereo not shown) [Example 8, 2-[2-(1,2,3,4-Tetrahydronaphthyl)amino]4,5-dihydrooxazole], the “% Reduction in area under Blood Glucose Curve” value (shortened to “% Reduction in area”) [1] was 18%.

With `Clc1cccc2c1CC(NC1=NCCO1)C2` (stereo not shown) [Example 3, 2-[2-(4-Chloro-2,3-dihydro-1H-indene)amino]4,5-dihydrooxazole] the “% Reduction in area” value [1] was 42% and the Ki (α2-Adrnoceptor) was 1 nM.

With `c1ccc2c(c1)CC(NC1=NCCO1)C2` [Example 1, 2-[2-(2,3-Dihydro-1H-indene)amino]4,5-dihydrooxazole] the “% Reduction in area” value [1] was 35% and the Ki (α2-Adrnoceptor) was 1 nM.

Work on `C[C@H]1c2ccccc2C[C@H]1NC1=NCCO1` (relative stereo) [Example 6, 2-[cis-2-(2,3-dihydro-1-methyl-1H-indene)amino]4,5-dihydrooxazole] yielded a Ki (α2-Adrnoceptor) of 2 nM.

`c1ccc2c(c1)CC(NC1=NCCS1)C2` [Example 9, 2-[2-(2,3-Dihydro-1H-indene)amino]4,5-dihydrothiazole] was tested, and the “% Reduction in area” value [1] was 33% and the Ki (α2-Adrnoceptor; [3H] Rauwolscine (0.5-1.0 nM), human platelet membranes, 30 minutes at 30° C., Cheng-Prussoff equation, read-out: Binding Affinity Ki) was 190 nM.

For `C[C@H]1c2ccccc2C[C@@H]1NC1=NCCO1` (relative stereo) [Example 7, 2-[Trans-2-(2,3-dihydro-1-methyl-1H-indene)amino]4,5-dihydrooxazole], the Ki (α2-Adrnoceptor) was 2 nM.

`Clc1ccc2c(c1)CC(NC1=NCCO1)C2` (stereo not shown) [Example 4, 2-[2-(5-Chloro-2,3-dihydro-1H-indene)amino]4,5-dihydrooxazole] was tested, and the “% Reduction in area” value [1] was 44% and the Ki (α2-Adrnoceptor) was 25 nM.
